Laboratory results as given in ChEMBL document CHEMBL1128102, “1,5-Benzodiazepines as CCK-B antagonists. Effect of halogen substitution at the benzo-fused ring on potency and selectivity” (Bioorg Med Chem Lett, 1995).
pKi: −log10 of the molar value.

How the values were obtained:
[1] = molecular target: Cholecystokinin receptor (Homo sapiens) (UniProt P32239+P32238); test: Selectivity was determined as the ratio for binding affinities of CCK-A receptor to CCK-B receptor; assay type: protein assay
[2] = molecular target: T1, Cholecystokinin receptor type A (Rattus norvegicus, UniProt P30551); test: Binding affinity was measured by its ability to displace [3H]CCK-8S from CCK-A receptor in rat pancreas
T1 sequence (P30551 whole entry): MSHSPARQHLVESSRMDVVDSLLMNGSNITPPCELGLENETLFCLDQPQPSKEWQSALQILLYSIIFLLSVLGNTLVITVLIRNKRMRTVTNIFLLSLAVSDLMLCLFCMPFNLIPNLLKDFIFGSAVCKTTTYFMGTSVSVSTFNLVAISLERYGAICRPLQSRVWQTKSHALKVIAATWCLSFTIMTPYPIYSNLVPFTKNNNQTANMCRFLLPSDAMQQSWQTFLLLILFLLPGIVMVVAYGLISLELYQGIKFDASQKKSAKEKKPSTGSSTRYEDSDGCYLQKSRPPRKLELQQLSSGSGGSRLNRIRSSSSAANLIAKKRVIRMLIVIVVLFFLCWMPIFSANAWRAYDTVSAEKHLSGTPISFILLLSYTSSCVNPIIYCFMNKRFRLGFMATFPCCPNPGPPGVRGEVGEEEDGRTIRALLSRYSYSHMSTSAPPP

Chain of Cholecystokinin receptor (Homo sapiens) (P32238 whole entry, looked up): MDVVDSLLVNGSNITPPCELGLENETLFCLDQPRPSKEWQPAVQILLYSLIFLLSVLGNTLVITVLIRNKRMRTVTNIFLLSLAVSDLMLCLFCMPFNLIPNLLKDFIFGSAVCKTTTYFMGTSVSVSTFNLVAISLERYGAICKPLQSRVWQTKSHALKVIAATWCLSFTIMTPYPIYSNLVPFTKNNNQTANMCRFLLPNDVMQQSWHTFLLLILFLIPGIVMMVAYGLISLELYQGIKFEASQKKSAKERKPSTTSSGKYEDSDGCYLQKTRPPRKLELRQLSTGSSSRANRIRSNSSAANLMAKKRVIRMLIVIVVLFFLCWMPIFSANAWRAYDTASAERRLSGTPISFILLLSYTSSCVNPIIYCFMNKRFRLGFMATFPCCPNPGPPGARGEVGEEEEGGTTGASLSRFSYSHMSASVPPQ
Chain of Cholecystokinin receptor (Homo sapiens) (P32239 whole entry, looked up): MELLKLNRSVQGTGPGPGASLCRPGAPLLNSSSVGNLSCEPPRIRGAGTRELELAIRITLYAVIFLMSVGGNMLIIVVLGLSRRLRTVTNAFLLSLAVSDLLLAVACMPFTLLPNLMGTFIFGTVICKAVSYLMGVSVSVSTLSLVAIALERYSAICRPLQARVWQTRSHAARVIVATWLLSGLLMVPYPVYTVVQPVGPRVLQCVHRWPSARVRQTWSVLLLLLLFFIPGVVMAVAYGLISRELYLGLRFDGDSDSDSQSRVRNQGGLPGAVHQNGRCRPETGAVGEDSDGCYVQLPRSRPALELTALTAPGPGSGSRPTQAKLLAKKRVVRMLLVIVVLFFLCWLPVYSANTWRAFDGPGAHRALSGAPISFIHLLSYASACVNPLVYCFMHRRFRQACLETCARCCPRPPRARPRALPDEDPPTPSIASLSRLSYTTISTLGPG

| SMILES | Ratio [1] | pKi [2] |
| --- | --- | --- |
| CC(C)CCN1C(=O)C(NC(=O)Nc2ccccc2)C(=O)N(c2ccccc2)c2ccc(Cl)cc21 (stereo not given) | 23 | 7.38 |
| CC(C)CCN1C(=O)C(NC(=O)Nc2ccccc2)C(=O)N(c2ccccc2)c2cc(Cl)c(Cl)cc21 (stereo not given) | 162 | 8.01 |
| CC(C)CCN1C(=O)C(NC(=O)Nc2ccccc2)C(=O)N(c2ccccc2)c2ccc(F)cc21 (stereo not given) | > 110 | 8.05 |
| CC(C)CCN1C(=O)C(NC(=O)Nc2ccccc2)C(=O)N(c2ccccc2)c2cc(F)ccc21 (stereo not given) | 49 | 8.34 |
| CC(C)CCN1C(=O)C(NC(=O)Nc2ccccc2)C(=O)N(c2ccccc2)c2cc(Cl)ccc21 (stereo not given) | 195 | 8.31 |
